In patent publication US8865756B2, “Inhibitors of HCV NS5A” (Presidio Pharmaceuticals, Inc., priority 2008, dated 2014):

tested on: HCV 1b_Huh-Luc/Neo-ET cell line persistently expressing a bicistronic genotype 1b replicon in Huh 7 cells; test: HCV replicon assay (luciferase readout); type: cell-based; conditions: Hepatitis C virus, Huh-7, 72 h, read-out: Inhibition of HCV genotype 1b
Summary of the method: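 Huh 7 cells carrying a genotype 1b luciferase/neo replicon treated in triplicate for 72 h, then luciferase activity measured. Signal expressed as % of control; EC50 from four-parameter logistic fit, determined several times.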

SMILES | EC50
COC(=O)N[C@H](C(=O)N1CCC[C@H]1c1ncc(C#Cc2ccc(-c3ccc(-c4cnc([C@@H]5CCCN5C(=O)[C@@H](NC(=O)OC)C(C)C)[nH]4)cc3)cc2)[nH]1)C(C)C [Compound 756] | < 1 nM
CC(C)(C)OC(=O)N[C@@H](C(=O)N1CCC[C@H]1c1ncc(C#Cc2ccc(-c3ccc(-c4cnc([C@@H]5CCCN5C(=O)[C@H](NC(=O)OC(C)(C)C)c5ccccc5)[nH]4)cc3)cc2)[nH]1)c1ccccc1 [Compound 757] | < 1 nM
COC(=O)N[C@@H](C(=O)N1CCC[C@H]1c1ncc(C#Cc2ccc(-c3ccc(-c4cnc([C@@H]5CCCN5C(=O)[C@@H](c5ccccc5)N5CCOCC5)[nH]4)cc3)cc2)[nH]1)c1ccccc1 [Compound 758] | < 1 nM
COC(=O)N[C@@H](C(=O)N1CCC[C@H]1c1ncc(C#Cc2ccc(-c3ccc(-c4cnc([C@@H]5CCCN5C(=O)[C@@H](c5ccccc5)N5CCCC5)[nH]4)cc3)cc2)[nH]1)c1ccccc1 [Compound 759] | < 1 nM
O=C(N[C@@H](C(=O)N1CCC[C@H]1c1ncc(C#Cc2ccc(-c3ccc(-c4cnc([C@@H]5CCCN5C(=O)[C@H](NC(=O)C5CC5)c5ccccc5)[nH]4)cc3)cc2)[nH]1)c1ccccc1)C1CC1 [Compound 760] | < 1 nM
O=C(N[C@@H](C(=O)N1CCC[C@H]1c1ncc(C#Cc2ccc(-c3ccc(-c4cnc([C@@H]5CCCN5C(=O)[C@H](NC(=O)N5CCOCC5)c5ccccc5)[nH]4)cc3)cc2)[nH]1)c1ccccc1)N1CCOCC1 [Compound 761] | < 1 nM
O=C(N[C@@H](C(=O)N1CCC[C@H]1c1ncc(C#Cc2ccc(-c3ccc(-c4cnc([C@@H]5CCCN5C(=O)[C@H](NC(=O)N5CC[C@H](O)C5)c5ccccc5)[nH]4)cc3)cc2)[nH]1)c1ccccc1)N1CC[C@H](O)C1 [Compound 762] | < 1 nM
O=C(N[C@@H](C(=O)N1CCC[C@H]1c1ncc(C#Cc2ccc(-c3ccc(-c4cnc([C@@H]5CCCN5C(=O)[C@H](NC(=O)N5CC[C@@H](O)C5)c5ccccc5)[nH]4)cc3)cc2)[nH]1)c1ccccc1)N1CC[C@@H](O)C1 [Compound 763] | < 1 nM
COC(=O)N[C@@H](C(=O)N1CCC[C@H]1c1ncc(-c2ccc(C#Cc3ccc4nc([C@@H]5CCCN5C(=O)[C@H](NC(=O)OC)c5ccccc5)[nH]c4c3)cc2)[nH]1)c1ccccc1 [Compound 800] | < 1 nM
CC(C)(C)OC(=O)N[C@@H](C(=O)N1CCC[C@H]1c1ncc(-c2ccc(C#Cc3ccc4nc([C@@H]5CCCN5C(=O)[C@H](NC(=O)OC(C)(C)C)c5ccccc5)[nH]c4c3)cc2)[nH]1)c1ccccc1 [Compound 801] | < 1 nM
COC(=O)N[C@H](C(=O)N1CCC[C@H]1c1ncc(-c2ccc(C#Cc3ccc4nc([C@@H]5CCCN5C(=O)[C@@H](NC(=O)OC)C(C)C)[nH]c4c3)cc2)[nH]1)C(C)C [Compound 802] | < 1 nM
O=C(N[C@@H](C(=O)N1CCC[C@H]1c1nc(-c2ccc3cc(C#Cc4cnc([C@@H]5CCCN5C(=O)[C@H](NC(=O)C5CC5)c5ccccc5)[nH]4)ccc3c2)c[nH]1)c1ccccc1)C1CC1 [Compound 804] | < 1 nM
CC1(O)CCC(C(=O)N[C@@H](C(=O)N2CCC[C@H]2c2nc(-c3ccc4cc(C#Cc5cnc([C@@H]6CCCN6C(=O)[C@H](NC(=O)N6CCC(C)(O)CC6)c6ccccc6)[nH]5)ccc4c3)c[nH]2)c2ccccc2)CC1 (stereo partly drawn) [Compound 805] | < 1 nM
O=C(N[C@@H](C(=O)N1CCC[C@H]1c1nc(-c2ccc3cc(C#Cc4cnc([C@@H]5CCCN5C(=O)[C@H](NC(=O)N5CC[C@H](O)C5)c5ccccc5)[nH]4)ccc3c2)c[nH]1)c1ccccc1)N1CC[C@H](O)C1 [Compound 806] | 1 to 9.9 nM
O=C(N[C@@H](C(=O)N1CCC[C@H]1c1nc(-c2ccc3cc(C#Cc4cnc([C@@H]5CCCN5C(=O)[C@H](NC(=O)N5CC[C@@H](O)C5)c5ccccc5)[nH]4)ccc3c2)c[nH]1)c1ccccc1)N1CC[C@@H](O)C1 [Compound 807] | 1 to 9.9 nM
O=C(N[C@@H](C(=O)N1CCC[C@H]1c1nc(-c2ccc3cc(C#Cc4cnc([C@@H]5CCCN5C(=O)[C@H](NC(=O)N5CCOCC5)c5ccccc5)[nH]4)ccc3c2)c[nH]1)c1ccccc1)N1CCOCC1 [Compound 808] | < 1 nM
COC(=O)N[C@@H](C(=O)N1CCC[C@H]1c1nc2ccc(C#Cc3ccc4nc([C@@H]5CCCN5C(=O)[C@H](NC(=O)OC)c5ccccc5)[nH]c4c3)cc2[nH]1)c1ccccc1 [Compound 851] | < 1 nM
COC(=O)N[C@H](C(=O)N1CCC[C@H]1c1nc2ccc(C#Cc3ccc4nc([C@@H]5CCCN5C(=O)[C@@H](NC(=O)OC)C(C)C)[nH]c4c3)cc2[nH]1)C(C)C [Compound 852] | < 1 nM
COC(=O)N[C@@H](C(=O)N1CCC[C@H]1c1nc2ccc(C#Cc3ccc4nc([C@@H]5CCCN5C(=O)[C@H](NC(=O)OC)C(C)C)[nH]c4c3)cc2[nH]1)C(C)C [Compound 853] | < 1 nM
COC(=O)N[C@H](C(=O)N1CCC[C@H]1c1ncc(-c2ccc(C#Cc3ccc4nc([C@@H]5CCCN5C(=O)[C@@H](c5ccccc5)N(C)C)[nH]c4c3)cc2)[nH]1)C(C)C [Compound 860] | < 1 nM
COC(=O)N[C@@H](C(=O)N1CCC[C@H]1c1ncc(-c2ccc(C#Cc3ccc4nc([C@@H]5CCCN5C(=O)[C@H](NC(=O)OC)C(C)C)[nH]c4c3)cc2)[nH]1)C(C)C [Compound 861] | 10 to 999 nM

SMILES | EC50
COC(=O)N[C@H](C(=O)N1CCC[C@H]1c1ncc(-c2ccc(C#Cc3ccc4nc([C@@H]5CCCN5C(=O)[C@@H](NC(=O)OC)[C@@H](C)OC)[nH]c4c3)cc2)[nH]1)[C@@H](C)OC [Compound 862] | < 1 nM
COC(=O)N[C@H](C(=O)N1CCC[C@H]1c1ncc(-c2ccc(C#Cc3ccc4nc([C@@H]5CCCN5C(=O)[C@@H](NC(=O)OC)[C@@H](C)O)[nH]c4c3)cc2)[nH]1)[C@@H](C)O [Compound 863] | < 1 nM
COC(=O)N[C@H](C(=O)N1CCC[C@H]1c1nc2ccc(C#Cc3ccc(-c4cnc([C@@H]5CCCN5C(=O)[C@H](c5ccccc5)N(C)C)[nH]4)cc3)cc2[nH]1)C(C)C [Compound 864] | < 1 nM
COC(=O)N[C@H](C(=O)N1CCC[C@H]1c1nc2ccc(C#Cc3ccc(-c4cnc([C@@H]5CCCN5C(=O)[C@@H](C(C)C)N(C)C)[nH]4)cc3)cc2[nH]1)C(C)C [Compound 865] | < 1 nM
COC(=O)N[C@H](C(=O)N1CCC[C@H]1c1nc2ccc(C#Cc3ccc(-c4cnc([C@@H]5CCCN5C(=O)[C@H](C(C)C)N(C)C)[nH]4)cc3)cc2[nH]1)C(C)C [Compound 866] | < 1 nM
COC(=O)N[C@H](C(=O)N[C@@H](C)c1nc2ccc(C#Cc3ccc(-c4cnc([C@@H]5CCCN5C(=O)[C@@H](NC(=O)OC)C(C)C)[nH]4)cc3)cc2[nH]1)C(C)C [Compound 867] | < 1 nM
COC(=O)N[C@H](C(=O)N[C@@H](C)c1ncc(-c2ccc(C#Cc3ccc4nc([C@H](C)NC(=O)[C@@H](NC(=O)OC)C(C)C)[nH]c4c3)cc2)[nH]1)C(C)C [Compound 868] | < 1 nM
COC(=O)N[C@H](C(=O)N[C@@H](C)c1ncc(-c2ccc(C#Cc3ccc4nc([C@@H]5CCCN5C(=O)[C@@H](NC(=O)OC)C(C)C)[nH]c4c3)cc2)[nH]1)C(C)C [Compound 869] | < 1 nM
CC1(O)CCN(C(=O)N[C@@H](C(=O)N2CCC[C@H]2c2ncc(C#Cc3ccc(-c4ccc(-c5cnc([C@@H]6CCCN6C(=O)[C@H](NC(=O)N6CCC(C)(O)CC6)c6ccccc6)[nH]5)cc4)cc3)[nH]2)c2ccccc2)CC1 [Compound 870] | < 1 nM
COC(=O)N[C@@H](C(=O)N[C@@H](C)c1ncc(-c2ccc(C#Cc3ccc(-c4cnc([C@H](C)NC(=O)[C@H](NC(=O)OC)C(C)C)[nH]4)cc3)cc2)[nH]1)C(C)C [Compound 950] | < 1 nM
COC(=O)N[C@H](C(=O)N[C@@H](C)c1ncc(-c2ccc(C#Cc3ccc(-c4cnc([C@H](C)NC(=O)[C@@H](NC(=O)OC)C(C)C)[nH]4)cc3)cc2)[nH]1)C(C)C [Compound 951] | < 1 nM
COC(=O)N[C@H](C(=O)N[C@@H](C)c1ncc(-c2ccc(C#Cc3ccc(-c4cnc([C@H](C)NC(=O)[C@@H](NC(=O)OC)[C@@H](C)OC)[nH]4)cc3)cc2)[nH]1)[C@@H](C)OC [Compound 952] | 1 to 9.9 nM
COC(=O)N[C@H](C(=O)N1CCC[C@H]1c1ncc(-c2ccc(C#Cc3ccc(-c4cnc([C@@H]5CCCN5C(=O)[C@H](C(C)C)N(C)C)[nH]4)cc3)cc2)[nH]1)C(C)C [Compound 953] | 1 to 9.9 nM
COC(=O)N[C@H](C(=O)N1CCC[C@H]1c1ncc(-c2ccc(C#Cc3ccc(-c4cnc([C@@H]5CCCN5C(=O)[C@@H](C(C)C)N(C)C)[nH]4)cc3)cc2)[nH]1)C(C)C [Compound 954] | 1 to 9.9 nM
COC(=O)N[C@H](C(=O)N1CCC[C@H]1c1ncc(-c2ccc(C#Cc3ccc(-c4cnc([C@@H]5CCCN5C(=O)[C@@H](c5ccccc5)N(C)C)[nH]4)cc3)cc2)[nH]1)C(C)C [Compound 955] | < 1 nM
COC(=O)N[C@H](C(=O)N1CCC[C@H]1c1ncc(-c2ccc(C#Cc3ccc(-c4cnc([C@@H]5CCCN5C(=O)[C@@H](c5ccccc5)N5CCC(O)CC5)[nH]4)cc3)cc2)[nH]1)C(C)C [Compound 956] | < 1 nM
COC(=O)N[C@H](C(=O)N1CCC[C@H]1c1ncc(-c2ccc(C#Cc3ccc(-c4cnc([C@@H]5CCCN5C(=O)[C@@H](c5ccccc5)N5CCN(C)CC5)[nH]4)cc3)cc2)[nH]1)C(C)C [Compound 957] | < 1 nM
COC(=O)N[C@H](C(=O)N1CCC[C@H]1c1ncc(-c2ccc(C#Cc3ccc(-c4cnc([C@@H]5CCCN5C(=O)[C@@H](c5ccccc5)N5CCN(CCO)CC5)[nH]4)cc3)cc2)[nH]1)C(C)C [Compound 958] | < 1 nM
CC[C@H](NC(=O)OC)C(=O)N1CCC[C@H]1c1ncc(-c2ccc(C#Cc3ccc(-c4cnc([C@@H]5CCCN5C(=O)[C@H](CC)NC(=O)OC)[nH]4)cc3)cc2)[nH]1 [Compound 960] | < 1 nM
COC(=O)N[C@@H](CC(C)C)C(=O)N1CCC[C@H]1c1ncc(-c2ccc(C#Cc3ccc(-c4cnc([C@@H]5CCCN5C(=O)[C@H](CC(C)C)NC(=O)OC)[nH]4)cc3)cc2)[nH]1 [Compound 961] | < 1 nM
COC(=O)N[C@@H](C)C(=O)N1CCC[C@H]1c1ncc(-c2ccc(C#Cc3ccc(-c4cnc([C@@H]5CCCN5C(=O)[C@H](C)NC(=O)OC)[nH]4)cc3)cc2)[nH]1 [Compound 962] | < 1 nM
